Results as given in patent US20230372350A1, “ASTROCYTIC TRPA1 CHANNEL INHIBITION AS A NOVEL NEUROPROTECTIVE THERAPEUTIC TARGET IN THE PRODROMAL PHASES OF ALZHEIMER'S DISEASE” (priority 2020, published 2023).

Legend:
CA1 pyramidal neurons = assay: Acute in vitro application on hippocampal slices: CA1 neuronal activity; type: cell-based, mouse; conditions: 1-month old APP/PS1-21 animals
Description: Coronal sections of the hippocampus (thickness 300 μm) were prepared from APP/PS1-21 transgenic mice (1 month and 3 months old) or from WT mice from the same litter. The mice were sacrificed by decerebration and decapitation. The brain was quickly removed and sectioned in ice-cold ACSF containing (in mM) : 2.5 KCl, 7 MgCl2, 0.5 CaCl2, 1.2 NaHPO4, 25 NaHCO3, 11D-glucose and 234 sucrose bubbled with 95% of O2 and 5% of CO2 with a V[…] vibratome (Leica, Germany). The sections containing the hippocampus were placed in ACSF containing (in mM) : 126 NaCl, 2.5 KCl, 1.2 MgCl2, 2.5 CaCl2, 1.2 NaH2PO4 bubbled with 95% of O2 and 5% of CO2 and supplemented with 1 mM of sodium pyruvate at room temperature for a recovery period. Whole-cell recordings were performed on visually identified CA1 pyramidal neuron somas. […] The sEPSCs and their kinetics were analyzed, after a stabilization period of 10 minutes, 5 minutes from the recordings. Access resistance was constantly monitored and recordings were excluded from this study when this parameter varied more than 20% during the experiment. Recordings were analyzed using the Clampfit module of pClamp8 software (Molecular Devices, USA) with a single one at 20 pA to exclude miniature sEPSCs.

[1] = test system: stratum radiatum synapses of APP/PS1-21 and WT mice; assay: Chronic intraperitoneal treatment: electron microscopy of astrocyte coverage of synapses; type: in vivo, mouse; conditions: 3-months old, i.p. treatment
Description: This solution is then diluted to 1 μg/μl in an isotonic solution containing 1% Pluronic F-127 and 0.9% NaCl. The animals are injected daily intraperitoneally at a dose of 5 mg/kg of body mass. Sterile 0.5 ml BD MicroFine syringes with no dead volume, equipped with a 30G (0.3 mm) needle are used for the injections. The injection is started from the 14th postnatal day (appearance of the expression of the Thy1gene promoter in the hippocampus, triggering the overexpression of Aβ in the APP/PS1-21 murine model) Hippocampi were dissected and fixed with 1.7% of glutaraldehyde in 0.1 M phosphate buffer at pH 7.4 for 48 hours at room temperature. The CA1 region was dissected under a binocular magnifying glass and fixed again for 2 hours in the same solution. Samples were then washed with buffer and post-fixed with 1% of osmium tetroxide and 0.1M phosphate buffer with pH 7.2 for 1 hour at 4° C. After thorough washing with water, the cells were then stained with 1% of uranil acetate with pH 4 in water for 1 hour at 4° C. before being dehydrated by successive alcohol baths (30%-60%-90%-100%-100%-100%) and incubated with a 1:1 epon/ethanol at 100% mixture for 1 hour and several baths of fresh epoxy resin (Sigma-Aldrich, France) for 3 hours. Finally, the samples were included in a capsule filled with resin which was allowed to polymerize for 72 h at 60° C. […]

APP/PS1-21 and WT mice = assay: Chronic intraperitoneal treatment: Barnes maze; type: in vivo, mouse; conditions: 6-months old
Description: This solution is then diluted to 1 μg/μl in an isotonic solution containing 1% Pluronic F-127 and 0.9% NaCl. The animals are injected daily intraperitoneally at a dose of 5 mg/kg of body mass. Sterile 0.5 ml BD MicroFine syringes with no dead volume, equipped with a 30G (0.3 mm) needle are used for the injections. The injection is started from the 14th postnatal day (appearance of the expression of the Thy1gene promoter in the hippocampus, triggering the overexpression of Aβ in the APP/PS1-21 murine model) The mice were placed in the center of a well-lit open platform (BioSeb, diameter 120 cm). The platform includes 20 holes (diameter 5 cm) with an escape box (target) attached below any of the holes. On the first day of training, the mice were first placed in the middle of the platform and gently guided to the target after 5 minutes of free exploration. Once the mice entered the escape box, they remained there for 1 minute before being returned to their cage. During the 3 days of the training/acquisition phase, the mice performed 3 trials per day with an interval between trials of 20 minutes. The mice had 180 seconds to find the escape box or were gently guided thereto. On day 4 (test day), the escape box was removed and the mice were allowed to freely explore the maze for 60 seconds. The time taken to reach the target (latency) and the exploration time of the target area (target hole±1) were analyzed. All data were recorded and analyzed with EthoVision XT9 (Noldus). The working memory is perhaps one of the most studied aspects of memory impairment in Alzheimer's disease. The inventors administered daily the TRPA1 channel specific inhibitor (HC030031) or the carrier intraperitoneally (5 mg/kg of body mass) from the 14th postnatal day up to 6 months in APP/PS1-21 and wild-type WT mice.

[2] = test system: models of neuropathic and inflammatory pain; conditions: rats, oral administration 100 mg/kg; Eid et al. 2008; cited from earlier work
[3] = test system: trigeminal neuropathy-like pain behaviors; conditions: mice, subcutaneous (100 μg/10 μl) or intragastric (300 mg/kg); Trevisan et al. 2016; cited from earlier work
[4] = APP/PS1-21 mice, 5 mg/kg i.p. daily from 14th postnatal day
[5] = WT control mice, chronic treatment

CC(C)c1ccc(NC(=O)Cn2cnc3c2c(=O)n(C)c(=O)n3C)cc1 [HC030031, 2-(1,3-Dimethyl-2,6-dioxo-1,2,3,6-tetrahydro-7H-purin-7-yl)-N-(4-isopropylphenyl)acetamide]
neuronal hyperactivity (CA1) (CA1 pyramidal neurons): fully restored
synapses enveloped (astrocyte coverage of stratum radiatum synapses) ([1]; APP/PS1 mice): 64.0±1.5%
synapses enveloped (astrocyte coating) ([1]; WT mice): 62.7±2.7%
area under the curve for latency to reach the escape box (learning phase, working memory) (APP/PS1-21 and WT mice; [4]): 595.9±77.2
first latency to the target area during the trial (reference memory) (APP/PS1-21 and WT mice; [4]): 18.5 ± 4.2 s
reference memory performance (APP/PS1-21 and WT mice; [5]): no impact
working memory performance (APP/PS1-21 and WT mice; [5]): no impact
analgesic effect [2]: significant analgesic effect
trigeminal neuropathy-like pain behaviors [3]: abolished
